Measurements from patent US11110105B2, “Compounds, composition and uses thereof for treating cancer” (INSTITUT GUSTAVE ROUSSY, priority 2017, dated 2021).
Where two headings read alike, the source gives them in different places.

Legend:
[1] = test system: MCA205 globin-SL8-intron (MCA205 GI) tumors; experiment: Tumor challenge, MCA205 globin-SL8-intron in immunocompetent C57BL/6 mice; assay type: in vivo, mouse; settings: for tumor growth: C57BL/6
Experimental: (A) Experimental settings. (B) MCA205 globin-SL8-intron cells were inoculated subcutaneously on the mice flank. Five days and fifteen days later, 6 mg/kg, 12 mg/kg or 18 mg/kg isoginkgetin was injected intraperitoneally. Tumor size was assessed every 3 to 4 days until day 27. Each line represents the tumor size in area (mm^2) of 6 mice in each group. Data are given as mean ±SEM. *p<0.05 (ANOVA with Tukey's multiple comparison test comparing all groups).
(§1) (A) Experimental settings. Growth of (B) sarcoma MCA205 or (C) melanoma B16F10 cells that both stably express the globin-SL8-intron construct or (D) MCA205 Wild Type (WT) or (E) B16F10 WT cells that were subcutaneously inoculated on the flank of immunocompetent C57BL/6 mice injected intraperitoneally with 12 mg/kg or 18 mg/kg of isoginkgetin at days 5, 10 and 15 after inoculation. Tumor size was assessed every 3 to 4 days until reaching the established ethical endpoints. Each line represents the tumor size in area (mm^2) of 6 mice in each group. Size in area (mm^2) of (F) MCA205 globin-SL8-intron, (G) B16F10 globin-SL8-intron, (H) MCA205 WT or (I) B16F10 WT tumors subcutaneously inoculated on the flank of immunodeficient Nu/Nu Nude mice injected intraperitoneally with 18 mg/kg of isoginkgetin at days 5, 10 and 15 after inoculation. Data are presented at the day before the endpoints are reached.
Data are given as mean ±SEM. *P<0.05, **P<0.01, ***P<0.001 (unpaired student t test). […] Tumor size was assessed every 3 to 4 days until reaching the established ethical endpoints. Each line represents the tumor size in area (mm^2) of at least 6 mice in each group. Data are given as mean ±SEM. *p<0.05, **p<0.01 (ANOVA with Tukey's multiple comparison test comparing all groups). […] A Log-rank (Mantel-Cox) test was performed.
C57B1/6J female mice are obtained from Harlan. NU/NU nude mouse mice are obtained from Charles River. At 7 weeks old, mice are injected subcutaneously on the right flank with 5×10^4 MCA205-Globin-SL8-intron cells or with 4×10^4 B16F10-Globin-SL8-intron cells along with matrigel (VWR). […] Fifteen days after challenge mouse are again treated intreaperitonealy with the same drug. Area of the tumor is recorded every 3 to 4 days until day 27. All animal experiments were carried out in compliance with French and European laws and regulations. Results are expressed as mean ±SEM. *p<0.05, **P<0.01, ***P<0.001 (ANOVA with Tukey's multiple comparison test comparing all groups).

Water solubility = assay type: physicochemical
[2] = test system: B16F10 globin-SL8-intron (B16F10 GI) tumor; experiment: Tumor challenge, B16F10 globin-SL8-intron in immunocompetent C57BL/6 mice; assay type: in vivo, mouse; settings: 18 mg/kg intraperitoneally, days 5, 10 and 15
Experimental: as §1
Data are given as mean ±SEM. *P<0.05, **P<0.01, ***P<0.001 (unpaired student t test). […] Tumor size was assessed every 3 to 4 days until reaching the established ethical endpoints. […]
C57B1/6J female mice are obtained from Harlan. […] Area of the tumor is recorded every 3 to 4 days until day 27. […] Results are expressed as mean ±SEM. *p<0.05, **P<0.01, ***P<0.001 (ANOVA with Tukey's multiple comparison test comparing all groups).

[3] = test system: MCA205 globin-SL8-intron tumors; experiment: Tumor challenge, MCA205 globin-SL8-intron in immunodeficient Nu/Nu nude mice; assay type: in vivo, mouse; settings: 18 mg/kg intraperitoneally
Experimental: (D) MCA205 globin-SL8-intron cells were inoculated subcutaneously on the […] mice flank. […] Tumor size was assessed every 3 to 4 days until day 27. Each line represents the tumor size in area (mm^2) of 6 mice in each group. Data are given as mean ±SEM. *p<0.05, **p<0.01 (ANOVA with Tukey's multiple comparison test comparing all groups). (E) MCA205 globin-SL8-intron cells were inoculated subcutaneously on the Nude nu/nu mice flank. […] Tumor size was assessed every 3 to 4 days until day 27. Each line represents the tumor size in area (mm^2) of 6 mice in each group. Data are given as mean ±SEM. (A) Experimental settings. Growth of (B) sarcoma MCA205 or (C) melanoma B16F10 cells that both stably express the globin-SL8-intron construct or (D) MCA205 Wild Type (WT) or (E) B16F10 WT cells that were subcutaneously inoculated on the flank of immunocompetent C57BL/6 mice injected intraperitoneally with 12 mg/kg or 18 mg/kg of isoginkgetin at days 5, 10 and 15 after inoculation. Tumor size was assessed every 3 to 4 days until reaching the established ethical endpoints. Each line represents the tumor size in area (mm^2) of 6 mice in each group. […] Area of the tumor is recorded every 3 to 4 days until day 27. […] Results are expressed as mean ±SEM. *[…] with Tukey's multiple comparison test comparing all groups).

[4] = 18 mg/kg intraperitoneally, days 5, 10 and 15
[5] = 18 mg/kg intraperitoneally, days 5 and 15

COc1ccc(-c2cc(=O)c3c(OC)cc(OP(=O)([O-])[O-])c(-c4cc(-c5cc(=O)c6c(OC)cc(OP(=O)([O-])[O-])cc6o5)ccc4OC)c3o2)cc1.[Na+].[Na+].[Na+].[Na+] [IM2P2]
survival (Kaplan Meier) ([1]; 18 mg/kg intraperitoneally): does not impact survival
tumor growth [1, 4]: no impact
tumor growth [1, 5]: did not demonstrate any tumor growth decrease
water solubility (Water solubility): able to be dissolved in water
water solubility (Water solubility; listed as M2P2): considerably higher than that of the parent compound isoginkgetin
tumor growth [2]: had no effect on growth
tumor growth ([3]; days 5 and 15): any of the compounds used have an effect on the tumor growth

COc1ccc(-c2cc(=O)c3c(O)cc(O)c(-c4cc(-c5cc(=O)c6c(O)cc(O)cc6o5)ccc4OC)c3o2)cc1 [Isoginkgetin, isoginkgetin]
reduction of tumor growth at day 27 after challenge ([1]; 6 mg/kg intraperitoneally, days 5 and 15): 50%
reduction of tumor size at day 27 after challenge ([1]; 12 mg/kg intraperitoneally, days 5, 10 and 15): over 50%
reduction of tumor size at day 27 after challenge [1, 4]: over 50%
reduction of tumor growth at day 27 after challenge [1, 5]: 50%
survivors 100 days after tumor inoculation ([1]; 18 mg/kg intraperitoneally, Kaplan Meier): around 30%
water solubility (Water solubility): insoluble in water
tumor growth ([3]; days 5, 10 and 15): No effect
